In paper PMC11381475, “Biopharmaceutical profiling of anti-infective sanggenons from Morus alba root bark for inhalation administration” (International Journal of Pharmaceutics: X, 2024):
In brackets after ≈: the same amount, converted by molar mass. Like-named read-outs stand apart in the source and are kept apart here.

Columns and labels:
Calu-3 monolayer [1] = tested on: Calu-3 monolayer
[2] = UV-metric pKa measurement (SiriusT3); format: physicochemical; conditions: experimental, SiriusT3, 25 °C, mean ± S.D.
Protocol: Experimental pKa (−log10 of the acid dissociation equilibrium constant) values of SGC and SGD were evaluated using the UV-metric pKa measurement method of the SiriusT3 automated titrator instrument and the corresponding software SiriusT3Control and SiriusT3Refine (Pion Inc., Billerica, USA). The SiriusT3 apparatus uses a deuterium lamp to determine the UV/Vis absorbance spectrum of the test solutions at each pH point. The standard aqueous UV-metric pKa measurement protocol was conducted according to manufacturer instructions. […] This was mixed with 25 μL phosphate buffer (14.7 mM K2HPO4 and 0.15 M KCl in MilliQ water) and diluted with 1.5 mL ionic strength-adjusted water (ISA water ≡ 0.15 M KCl in MilliQ water). The subsequent acid/base titration and measurement of UV absorbance was automatically performed by the SiriusT3 at 25.0 ± 0.5 °C. […] Turbidity was monitored by a turbidity sensor to ensure the absence of precipitation of the test compounds during the experiment, since accurate pKa measurements are limited to fully dissolved substances. In case turbidity occurred, individual titrations were not used for further analysis, resulting in a total of 11 analysable titrations across the 5 replicate samples for both SGC and SGD.

[3] = potentiometric logP, water-octanol (SiriusT3); format: physicochemical; conditions: octanol/water, experimental, mean ± S.D., n = 3, read-out: logP
Protocol: LogP (partition coefficient) evaluation was performed via SiriusT3. The potentiometric logP measurement relies on assessing the partition profile of the test substance within a two-phase water-octanol solvent system. Changes in the relative volume ratio of octanol to water lead to shifts in the apparent pKa, resulting from the partitioning between non-ionised and ionised forms. LogP values were then estimated based on these assessments.

Calu-3 cells = test: Calu-3 cell uptake, FIA-TOFMS; format: in vitro ADME, human; conditions: 50 µg/mL; for Concentration [pg/µL] 1 in cell extract / Normalized concentration [pg/cell] 1: replicate 1; for Concentration [pg/µL] 2 in cell extract / Normalized concentration [pg/cell] 2: replicate 2; for Concentration [pg/µL] 3 in cell extract / Normalized concentration [pg/cell] 3: replicate 3
Protocol: At 4, 12, and 24 h after addition, cell extracts were generated in triplicates. To that end, the medium was aspirated from the respective wells, and cells were washed with pre-warmed ammonium carbonate solution (75 mM, pH 7.4, 37 °C). Immediately after removal of the wash solvent, 300 μL cold extraction solvent (40:40:20 acetonitrile:methanol:water, −20 °C) was added per well to lyse cells in situ and stop the enzymatic activity. The bottom of each well was subsequently scraped and the cell extracts were transferred to 96-well storage plates and stored at −80 °C until analysis. […] Quantification of SGC and SGD was performed using flow-injection time-of-flight mass spectrometry (FIA-TOFMS) in negative ion mode as described previously ([Fuhrer et al., 2011]). SGC and SGD signals were identified by matching accurate masses (for both [M-H]- at 707.2127 m/z). To account for possible influences of the complex matrix in the cell extract samples, a matrix-matched series of calibration samples were prepared, in which increasing concentrations of SGC were spiked into extracts of cells that had not previously been treated with either SGC or SGD. The calibration samples were injected alongside the cell extract samples and used to establish a calibration function using linear regression. The ion intensities measured were converted into SGC and SGD concentrations and normalized by the cell number in each sample, which was determined at each time point in separate cell cultures using trypan blue staining and cell counting in a Thermo Fisher Countess II Automated cell counter after trypsin-mediated cell detachment. This procedure eventually yielded estimates of SGC and SGD contents in pg/cell.

Calu-3 monolayer [4] = tested on: Calu-3 monolayer; remark: listed apart in the source
Calu-3 monolayer [5] = tested on: Calu-3 monolayer; remark: listed apart in the source
SARS-CoV-2 = tested on: SARS-CoV-2; set-up: method as in Wasilewicz et al., 2023; conditions: reported to be based on inhibition of the viral main protease, ref Wasilewicz et al., 2023; read-out: anti-SARS-CoV-2 activity IC50; cited from earlier work
[6] = Calu-3 cell viability, MTT assay; conditions: human
[7] = pH-dependent thermodynamic solubility, miniaturized shake-flask method, UPLC-PDA; conditions: for solubility thermodynamic at 24 h: 24 °C, thermodynamic from solid
[8] = tested on: lung epithelial monolayers; conditions: cited from earlier work

O=C1OC2(c3ccc(O)cc3Oc3cc(O)ccc32)c2ccccc21 [fluorescein]
fluorescein permeation across Calu-3 monolayer (Calu-3 monolayer [1]): no fluorescein permeation was detected

CC(C)=CC[C@]12Oc3cc(O)c([C@H]4C=C(C)C[C@H](c5ccc(O)cc5O)[C@H]4C(=O)c4ccc(O)cc4O)c(O)c3C(=O)[C@@]1(O)Oc1cc(O)ccc12 [SGC, sanggenon C]
pKa ([2]; read-out: pKa 1): 2.64 ± 0.69
pKa ([2]; read-out: pKa 2): 5.2 ± 0.8
pKa ([2]; read-out: pKa 3): 6.74 ± 0.14
pKa ([2]; read-out: pKa 4): 7.97 ± 0.06
pKa ([2]; read-out: pKa 5): 9 ± 0.04
pKa ([2]; read-out: pKa 6): 9.84 ± 0.05
pKa ([2]; read-out: pKa 7): 10.7 ± 0.02
pKa ([2]; read-out: pKa 8): 12.05 ± 0.07
logP [3]: 3 to 3.5
intracellular content, Mean [pg/cell] (Calu-3 cells; 4 h): 2.0 ± 0.1 pg/cell
Concentration [pg/µL] 1 in cell extract (Calu-3 cells; 4 h): 4284 pg/µL
Normalized concentration [pg/cell] 1 (Calu-3 cells; 4 h): 2.09 pg/cell
Concentration [pg/µL] 2 in cell extract (Calu-3 cells; 4 h): 3851 pg/µL
Normalized concentration [pg/cell] 2 (Calu-3 cells; 4 h): 1.88 pg/cell
Concentration [pg/µL] 3 in cell extract (Calu-3 cells; 4 h): 3902 pg/µL
Normalized concentration [pg/cell] 3 (Calu-3 cells; 4 h): 1.90 pg/cell
intracellular content, Mean [pg/cell] (Calu-3 cells; 4 h, listed as Sanggenon C): 1.96 pg/cell
intracellular content, Mean [pg/cell] (Calu-3 cells; 12 h): 5.54 pg/cell
Concentration [pg/µL] 1 in cell extract (Calu-3 cells; 12 h): 13620 pg/µL
Normalized concentration [pg/cell] 1 (Calu-3 cells; 12 h): 5.77 pg/cell
Concentration [pg/µL] 2 in cell extract (Calu-3 cells; 12 h): 13397 pg/µL
Normalized concentration [pg/cell] 2 (Calu-3 cells; 12 h): 5.67 pg/cell
Concentration [pg/µL] 3 in cell extract (Calu-3 cells; 12 h): 12248 pg/µL
Normalized concentration [pg/cell] 3 (Calu-3 cells; 12 h): 5.19 pg/cell
intracellular content, Mean [pg/cell] (Calu-3 cells; 24 h): 8.1 ± 0.3 pg/cell
Concentration [pg/µL] 1 in cell extract (Calu-3 cells; 24 h): 17926 pg/µL
Normalized concentration [pg/cell] 1 (Calu-3 cells; 24 h): 8.34 pg/cell
Concentration [pg/µL] 2 in cell extract (Calu-3 cells; 24 h): 16862 pg/µL
Normalized concentration [pg/cell] 2 (Calu-3 cells; 24 h): 7.85 pg/cell
Concentration [pg/µL] 3 in cell extract (Calu-3 cells; 24 h): 17411 pg/µL
Normalized concentration [pg/cell] 3 (Calu-3 cells; 24 h): 8.11 pg/cell
intracellular content, Mean [pg/cell] (Calu-3 cells; 24 h, listed as Sanggenon C): 8.10 pg/cell
evidence for permeability of SGC or SGD (Calu-3 monolayer [4]): Neither by applying the isolated compounds nor the extracts MA60 and MA21, any evidence for the permeability of SGC or SGD was detectable
permeability across intact Calu-3 monolayers (Calu-3 monolayer [4]): no measurable permeability
change in TEER during permeability study, B-A direction (Calu-3 monolayer [5]): a decrease in TEER values was also observed
IC50 (SARS-CoV-2): 7.2 µM
CC50 at 24 h [6]: 47.8 µg/mL (≈ 67.4 µM)
solubility thermodynamic at 24 h ([7]; HCl buffer, pH 1.2, simulated gastric fluid): 4.47 µg/mL (≈ 6.31 µM)
solubility thermodynamic at 24 h ([7]; acetate buffer, pH 4.5, aqueous buffer): 8.53 µg/mL (≈ 12 µM)
pH 1.2 solubility ([7]; compound within extract MA21, pH 1.2): < LOQ
pH 4.5 solubility ([7]; compound within extract MA21, pH 4.5): < LOQ
pH 6.8 solubility ([7]; compound within extract MA21, pH 6.8): 4.05 µg/mL
pH 7.4 solubility ([7]; compound within extract MA21, pH 7.4): 3.24 µg/mL
pH 1.2 solubility ([7]; compound within extract MA60, pH 1.2): 6.88 µg/mL
pH 4.5 solubility ([7]; compound within extract MA60, pH 4.5): < LOQ
pH 6.8 solubility ([7]; compound within extract MA60, pH 6.8): 12.7 µg/mL
pH 7.4 solubility ([7]; compound within extract MA60, pH 7.4): 13.6 µg/mL
solubility thermodynamic at 24 h ([7]; phosphate buffer, pH 6.8, aqueous buffer): 18.5 µg/mL (≈ 26.1 µM)
solubility thermodynamic at 24 h ([7]; phosphate buffer, pH 7.4, aqueous buffer): 47.1 µg/mL (≈ 66.5 µM)

colistin
Papp [8]: 0.04 ± 0.02 × 10^−6 cm/s

NC[C@H]1O[C@H](O[C@H]2[C@H](O)[C@@H](O[C@H]3O[C@H](CO)[C@@H](O)[C@H](N)[C@H]3O)[C@H](N)C[C@@H]2N)[C@H](N)C[C@@H]1O [tobramycin]
Papp [8]: < 5e-08 cm/s

C[C@H]1[C@H](NC(=O)/C(=N\OC(C)(C)C(=O)O)c2csc(N)n2)C(=O)N1S(=O)(=O)O [aztreonam]
Papp [8]: 0.07 ± 0.02 × 10^−6 cm/s
